“Also recorded” adds a separate entry of the source. Like-named read-outs stand apart in the source and are kept apart here.
Key:
Lsa-nAChR1 (α1α2β1β2) = Lsa-nAChR1 (α1α2β1β2) (Lepeophtheirus salmonis, UniProt A0A7S5PZ05+A0A7S5Q3W4+A0A7S5Q7H3+A0A7S5U9A3); assay: cell-based; assay type: cell-based; conditions: for inward current on average: 10 μM sazetidine A; for agonist screening (pre- and co-application protocol): 1 μM; for Emax: read-out: Max peak (% Ach); for type of effect on the receptor (agonist / partial-agonist / no effect): dose-response
Chain of Lsa-nAChR1 (α1α2β1β2) (A0A7S5PZ05 entry or part of it): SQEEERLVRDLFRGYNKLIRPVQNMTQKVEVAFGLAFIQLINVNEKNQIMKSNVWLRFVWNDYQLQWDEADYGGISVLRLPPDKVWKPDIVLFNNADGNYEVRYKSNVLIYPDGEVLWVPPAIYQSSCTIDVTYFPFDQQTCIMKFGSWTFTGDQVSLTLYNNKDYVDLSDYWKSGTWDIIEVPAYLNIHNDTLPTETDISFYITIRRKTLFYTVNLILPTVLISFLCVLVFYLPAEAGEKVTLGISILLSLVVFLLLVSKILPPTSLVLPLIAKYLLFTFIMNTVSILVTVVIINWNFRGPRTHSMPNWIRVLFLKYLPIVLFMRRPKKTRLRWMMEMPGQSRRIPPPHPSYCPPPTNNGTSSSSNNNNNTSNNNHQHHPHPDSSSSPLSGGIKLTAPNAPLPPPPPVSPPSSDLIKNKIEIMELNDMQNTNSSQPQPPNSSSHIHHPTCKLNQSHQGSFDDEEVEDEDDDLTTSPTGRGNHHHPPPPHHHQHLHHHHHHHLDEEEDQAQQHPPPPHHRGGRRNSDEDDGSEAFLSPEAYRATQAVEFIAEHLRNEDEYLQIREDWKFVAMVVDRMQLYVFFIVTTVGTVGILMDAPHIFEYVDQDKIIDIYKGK
Chain of Lsa-nAChR1 (α1α2β1β2) (A0A7S5Q3W4 entry or part of it): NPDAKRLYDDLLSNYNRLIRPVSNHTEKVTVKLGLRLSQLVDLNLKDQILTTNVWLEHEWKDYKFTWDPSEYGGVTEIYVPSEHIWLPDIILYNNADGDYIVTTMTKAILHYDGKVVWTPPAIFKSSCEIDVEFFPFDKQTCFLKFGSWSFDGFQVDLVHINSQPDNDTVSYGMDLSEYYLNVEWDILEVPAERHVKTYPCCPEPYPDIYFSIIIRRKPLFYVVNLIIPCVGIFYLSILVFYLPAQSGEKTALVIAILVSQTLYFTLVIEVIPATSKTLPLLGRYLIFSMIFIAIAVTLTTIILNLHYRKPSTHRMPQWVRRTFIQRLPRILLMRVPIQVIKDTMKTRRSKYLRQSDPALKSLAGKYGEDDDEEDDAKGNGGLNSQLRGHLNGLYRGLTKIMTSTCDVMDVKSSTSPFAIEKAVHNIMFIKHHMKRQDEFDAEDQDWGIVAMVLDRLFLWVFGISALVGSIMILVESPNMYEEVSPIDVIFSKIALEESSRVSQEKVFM
Chain of Lsa-nAChR1 (α1α2β1β2) (A0A7S5U9A3 entry or part of it): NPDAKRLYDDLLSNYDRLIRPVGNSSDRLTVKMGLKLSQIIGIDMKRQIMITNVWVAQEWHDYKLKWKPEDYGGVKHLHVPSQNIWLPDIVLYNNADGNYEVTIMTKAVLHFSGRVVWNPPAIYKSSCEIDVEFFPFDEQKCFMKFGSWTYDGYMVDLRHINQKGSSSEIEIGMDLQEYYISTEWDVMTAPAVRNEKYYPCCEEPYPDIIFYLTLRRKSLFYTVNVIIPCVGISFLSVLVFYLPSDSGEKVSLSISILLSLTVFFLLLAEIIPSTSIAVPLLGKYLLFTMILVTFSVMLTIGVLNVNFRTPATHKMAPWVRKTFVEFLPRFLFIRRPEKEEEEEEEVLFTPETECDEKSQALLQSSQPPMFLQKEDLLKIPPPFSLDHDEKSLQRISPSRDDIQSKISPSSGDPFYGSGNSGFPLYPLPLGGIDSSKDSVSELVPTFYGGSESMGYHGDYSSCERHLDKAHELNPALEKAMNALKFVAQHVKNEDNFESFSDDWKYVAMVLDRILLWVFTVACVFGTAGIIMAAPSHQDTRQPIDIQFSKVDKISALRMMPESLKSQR
Chain of Lsa-nAChR1 (α1α2β1β2) (A0A7S5Q7H3 entry or part of it): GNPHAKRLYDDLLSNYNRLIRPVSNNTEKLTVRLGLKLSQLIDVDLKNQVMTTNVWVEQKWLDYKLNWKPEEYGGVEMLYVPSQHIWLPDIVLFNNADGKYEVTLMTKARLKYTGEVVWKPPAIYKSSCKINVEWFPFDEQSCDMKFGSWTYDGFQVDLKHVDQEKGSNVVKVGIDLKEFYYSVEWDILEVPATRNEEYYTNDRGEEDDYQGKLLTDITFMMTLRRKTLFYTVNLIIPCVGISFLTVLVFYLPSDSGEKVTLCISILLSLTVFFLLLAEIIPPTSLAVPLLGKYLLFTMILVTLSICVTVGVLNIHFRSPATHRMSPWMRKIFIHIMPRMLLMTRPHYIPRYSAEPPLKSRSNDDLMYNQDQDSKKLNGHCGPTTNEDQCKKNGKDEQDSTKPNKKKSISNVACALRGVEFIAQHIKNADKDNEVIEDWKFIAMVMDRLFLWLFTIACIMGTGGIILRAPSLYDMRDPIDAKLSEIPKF
Procedure: (§1) Capped cRNAs were synthesized (T7 mMessage mMachine kit, Ambion, Austin, TX, USA) from the linearized vectors containing the different subunits according to the manufacturer’s protocol. cRNA samples were stored at -80°C until use. Oocytes were ordered from Ecocyte (Germany). Oocytes were microinjected using a Roboinject automatic injection system (Multi Channel Systems, Reutlingen, Germany) with 15–25 nl of cRNA solution (30–300 ng/μl per subunit) and then incubated at 18°C in sterile filtered Barth solution containing: NaCl (88 mM), KCl (1 mM), NaHCO3 (2.4 mM), HEPES (10 mM, pH 7.5), MgSO4·7H2O (0.82 mM), Ca(NO3)2·4H2O (0.33 mM), CaCl2·6H2O (0.41 mM), at pH 7.4, and supplemented with 20 μg/ml of kanamycin, 100 U/ml benzylpenicillin and 100 μg/ml streptomycin. Recordings were made 3–5 days post-cRNA injection.
(§2) Oocytes were impaled with two electrodes filled with 3 M KCl, and their membrane potentials were maintained at -80 mV throughout the experiment. Currents evoked by ACh or drugs were recorded using an automated process equipped with standard two-electrode voltage-clamp configuration (HiClamp, MultiChannel Systems). The principle of this system differs from standard electrophysiology because, instead of applying the compound in the perfusion, the oocyte is moved into a well from a 96-well microtiter plate containing the desired solution. Data were captured at 100 Hz, filtered at 10 Hz, and analyzed using proprietary data acquisition and analysis software running under Matlab (Mathworks Inc., Natick, MA, USA). Additional analyses were performed in Excel (Microsoft, Redmond, WA, USA). […] Concentration-activation curves were fitted with the equation: Y=100/1+10^H(logEC50−X) (1) where Y is the normalized response, logEC50 is the logarithm of the concentration of agonist eliciting half-maximal current amplitude, X is the log of dose or concentration, and H is the slope factor or Hill slope. Individual curves were standardized to the initial ACh (100 μM) application amplitude and subsequently averaged. EC50 values were determined from the mean of at least 3 or more cells.
(§3) Dose-response curves were obtained by sequential applications for 10s of increasing concentrations of ACh or drugs to oocytes expressing Lsa-nAChR1 or Lsa-nAChR2. A total time of 90 s time was allowed between applications for the channel to recover from any desensitization. To test the antagonistic effect of DHbE (Fig 5) and for the screening protocol (Fig 6), cells that evoked a significant current with ACh were exposed to the test compounds at 10 μM respectively 1 μM using a pre-application of 45 s and co-application of 10 s with ACh (1 μM).

Lsa-nAChR2 (α3β1β2) = Lsa-nAChR2 (α3β1β2) (Lepeophtheirus salmonis, UniProt A0A7S5PZ03+A0A7S5PZ05+A0A7S5Q7H3); assay: cell-based; assay type: cell-based; conditions: for type of effect on the receptor (agonist / partial-agonist / super-agonist / no effect): dose-response; for agonist screening (pre- and co-application protocol): 1 μM; for Max peak (% Ach): maximal peak current compared to ACh 100 μM
Procedure: as §1, §2, §3

L. salmonis (preadult 2) = assay: In-vivo exposure of preadult salmon lice to 1 mg/L for 24 h; parameters: species or system Lepeophtheirus salmonis; conditions: for Efficacy at 1.0 mg/L (%): preadult 2 parasites
Procedure: The exposure of preadult 2 parasites were conducted as described in [48]. The parasites originated from a salmon louse strain sensitive to all tested compounds [49]. The cultivation of salmon lice was conducted at the NIVA Marine Research Station Solbergstrand in the Oslofjord. Laboratory reared Atlantic salmon of were kept in 1 m^3 tanks supplied with running seawater, salinity 33–35 parts per thousand, temperature 7–9°C. Salmon lice egg strings were harvested from adult females and hatched according to [50]. The preadult salmon lice were harvested on the day of exposure. Fish were anaesthetized with 100 mg/L metacaine for 2 min. The parasites were gently removed from the fish with forceps, placed directly in glass containers filled with 1000 mL filtered seawater and exposed to the compounds within 4 h.
Each group of parasites was exposed to 1 mg/L of the test substance for 24 h. The compounds were dissolved in DMSO and an emulsifier was added immediately before dilution with water. The bottles were finally incubated at 10°C according to [49], with continuous air supply, for 24 h.
After the incubation period was over, the solution with parasites was poured out through a funnel containing a filter. Parasites remaining attached to the bottle wall were classified as alive. Immobilized parasites were collected from the filter. […] All parasites in the two groups were counted and classified according to sex and developmental stage.

[1] = Xenopus oocytes, 1:1 (α:β) ratio
[2] = EC50 (nM), Xenopus oocytes, 1:1 (α:β) ratio
[3] = calculated EC50, text values in μM, 1:1 (α:β) ratio

Compound | Efficacy at 1.0 mg/L (%) (L. salmonis (preadult 2)) | EC50 (Lsa-nAChR1 (α1α2β1β2)) | agonist screening (pre- and co-application protocol) (Lsa-nAChR1 (α1α2β1β2); 1:1 (α:β) ratio) | Emax (Lsa-nAChR1 (α1α2β1β2)) | EC50 (nM) (Lsa-nAChR2 (α3β1β2); [1]) | type of effect on the receptor (agonist / partial-agonist / super-agonist / no effect) (Lsa-nAChR2 (α3β1β2); 1:1 (α:β) ratio) | EC50 (nM) (Lsa-nAChR1 (α1α2β1β2); [1]) | type of effect on the receptor (agonist / partial-agonist / no effect) (Lsa-nAChR1 (α1α2β1β2); 1:1 (α:β) ratio) | agonist screening (pre- and co-application protocol) (Lsa-nAChR2 (α3β1β2); 1:1 (α:β) ratio) | Max peak (% Ach) (Lsa-nAChR2 (α3β1β2); 1:1 (α:β) ratio) | other results
OCCCCC#Cc1cncc(OC[C@@H]2CCN2)c1 [sazetidine A, Sazetidine A] |  |  |  |  |  |  |  |  |  |  | inward current on average (Lsa-nAChR1 (α1α2β1β2); α:β = 1:10, n = 3): 0.22 μA; inward current on average (Lsa-nAChR1 (α1α2β1β2); α:β = 10:1, n = 3): 0.24 μA; inward current on average (Lsa-nAChR2 (α3β1β2); 10 μM sazetidine A, α:β = 10:1, n = 3 (assignment uncertain)): 0.50 μA; responsiveness to sazetidine A (Lsa-nAChR2 (α3β1β2); 10 μM, α:β = 10:1): responsive
O=[N+]([O-])NC1=NCCN1Cc1ccc(Cl)nc1 [Imidacloprid] | 100.0% | 69 nM | agonists | 31.8% | No effect | no effect; also recorded: did not affect; also recorded: did not demonstrate any ex-vivo effect |  |  |  |  | lethal effect / mortality of preadult parasites (L. salmonis (preadult 2)): significant lethal effect; also recorded: high mortality rates
COP(=O)(OC)SCn1c(=O)oc2cc(Cl)cnc21 [Azamethiphos] |  |  |  |  | No effect |  | No effect |  |  |  | 
CN/C(=N\[N+](=O)[O-])NCc1cnc(Cl)s1 [Clothianidin] | 54.3% | 37 nM | agonists | 41.9% |  | partial-agonists |  | partial-agonists | agonists | 75.4% | EC50 (Lsa-nAChR2 (α3β1β2)): 81 nM
CCN(Cc1ccc(Cl)nc1)/C(=C/[N+](=O)[O-])NC [Nitenpyram] | 17.7% | 45 nM | agonists | 27.4% |  | partial-agonists |  | partial-agonists | agonists | 70.1% | EC50 (Lsa-nAChR2 (α3β1β2)): 381 nM
N#C/N=C1\SCCN1Cc1ccc(Cl)nc1 [Thiacloprid] | 100.0% |  | agonists | 6.1% | No effect | did not show any effect |  | partial-agonist | agonists |  | lethal effect / mortality of preadult parasites (L. salmonis (preadult 2)): significant lethal effect; also recorded: high mortality rates; EC50 (Lsa-nAChR1 (α1α2β1β2); [2]): 12 nM; type of effect on the receptor (agonist / partial-agonist / super-agonist / no effect) (Lsa-nAChR2 (α3β1β2); 1:1 (α:β) ratio, listed as thiacloprid): did not affect; also recorded: did not demonstrate any ex-vivo effect
Emamectin |  |  |  |  | No effect |  | No effect |  |  |  | 
CN1CCC[C@H]1c1cccnc1 [Nicotine] |  |  |  | 27.9% |  | partial-agonist |  | partial-agonist |  | 16.1% | EC50 (Lsa-nAChR1 (α1α2β1β2); [2]): 3950 nM; EC50 (Lsa-nAChR1 (α1α2β1β2); [3]): 3950 nM; EC50 (Lsa-nAChR2 (α3β1β2); [2]): 9980 nM; EC50 (Lsa-nAChR2 (α3β1β2); [3]): 9980 nM
CC1(C)[C@H](C(=O)O[C@H](C#N)c2cccc(Oc3ccccc3)c2)[C@@H]1C=C(Br)Br [Deltamethrin] |  |  |  |  | No effect |  | No effect |  |  |  | 
CC1(C)C(C=C(Cl)Cl)C1C(=O)OC(C#N)c1cccc(Oc2ccccc2)c1 (stereo not drawn) [Cypermethrin] |  |  |  |  | No effect |  | No effect |  |  |  | 
C/C(=N\C#N)N(C)Cc1ccc(Cl)nc1 [Acetamiprid] | 89.5% | 10300 nM | agonists | 34.1% | No effect | did not affect; also recorded: did not demonstrate any ex-vivo effect |  | partial-agonist |  |  | lethal effect / mortality of preadult parasites (L. salmonis (preadult 2)): significant lethal effect; also recorded: high mortality rates
CN1COCN(Cc2cnc(Cl)s2)/C1=N\[N+](=O)[O-] [Thiamethoxam] | 0.0% |  |  |  | No effect |  | No effect |  |  |  | 
CN/C(=N/CC1CCOC1)N[N+](=O)[O-] (stereo not drawn) [Dinotefuran] | 100.0% |  | agonists | 69.8% |  | super-agonist |  | partial-agonists | agonists | 110.2% | EC50 (Lsa-nAChR1 (α1α2β1β2); [2]): 220 nM; EC50 (Lsa-nAChR2 (α3β1β2); [2]): 757 nM

Reference: article PMC7419010 (PLoS Pathogens, 2020)
